From paper PMC12291762 (Antioxidants, 2025)
Each block holds one molecule with its values, some of them ahead of it.

Columns and labels:
COX-1 and COX-2 = settings: cited from earlier work
[1] = test system: systemic oxidative stress parameters; experiment: Systemic redox state (plasma, erythrocyte lysate) 24 h after carrageenan; assay type: in vivo, Wistar albino rats
Method: (§1) Following 24 h of carrageenan-induced paw edema inflammation model and intraperitoneal anesthesia induced by ketamine/xylazine (100/10 mg/kg of BW), the animals were sacrificed, while whole-blood samples and edema-affected paw tissues were isolated. After centrifugation of whole blood, plasma and erythrocyte lysate samples were separated for further examination of the applied compounds’ effects on the systemic redox balance state. Pro-oxidative markers including superoxide anion radical (O2∙^−), hydrogen peroxide (H2O2) nitrites (NO2^−), and index of lipid peroxidation measured as thiobarbituric acid (TBA) reactive substances (TBARS) were determined from plasma samples, while the antioxidant capacity, including superoxide dismutase (SOD) and catalase (CAT) activity, as well as the reduced glutathione (GSH) level were examined in erythrocyte lysate samples [46]. […] Edema-affected paw tissue samples were weighed (100 mg) and homogenized (OmniPrep™ multi-sample homogenizer, Omni International, Kennesaw, GA, USA) in 900 µL phosphate buffer on ice (pH = 7.4), and centrifuged at 12,000 rpm for 20 min. These supernatant samples were used for the determination of the aforementioned pro-oxidative and antioxidative parameters levels. All oxidative stress analyses were performed spectrophotometrically using a Shimadzu UV 1800 spectrophotometer (Kyoto, Japan).
(§2) Determination of the O2∙^− level was conducted by adding 950 µL of a Nitro Blue Tetrazolium (NBT) mixture with TRIS buffer in 50 µL of sample, measured at the 550 nm wavelength. The level of H2O2 was determined during the oxidation of phenol red by H2O2, which was catalyzed with horseradish peroxidase and measured at the 610 nm wavelength. Indirect measurement of nitrites was performed by the precipitation of samples with 30% sulfo-salicylic acid, followed by vortexing and centrifugation at 3000 rpm for 15 min. The equal volumes of isolated supernatant and Griess’ reagent (containing 1% sulfanilamide in 5% phosphoric acid/0.1% naphthalene ethylenediamine-dihydrochloride) were incubated for 10 min and measured at the 550 nm wavelength. The TBARS concentration was determined by adding 400 µL of sample to 200 µL of TBA in 0.05 M NaOH, followed by 15 min incubation at 100 °C. Measurement was performed at the 530 nm wavelength.
(§3) The epinephrine method was used for SOD determination. By adding 100 µL of sample, the same volume of epinephrine, and 1000 µL of carbonate buffer, the measurement was performed at the 470 nm wavelength. The determination of CAT activity was based on the preparation of a mixture containing 100 µL of sample, 50 µL of catalase buffer, and 1000 µL of 10 mM H2O2, which was measured at the 230 nm wavelength.

[2] = test system: local oxidative stress parameters; experiment: Local redox state (edema-affected paw tissue homogenate) 24 h after carrageenan; assay type: in vivo, Wistar albino rats; settings: inflamed paw tissue
Method: as §1, §2, §3

COX-1 = target: T1, COX-1 (Ovis aries, UniProt P05979); experiment: Fluorometric COX-1 inhibitor screening kit; assay type: biochemical; set-up: purchased Abcam ab204698; settings: mean ± standard error, three independent measurements
T1 sequence (P05979 25-600): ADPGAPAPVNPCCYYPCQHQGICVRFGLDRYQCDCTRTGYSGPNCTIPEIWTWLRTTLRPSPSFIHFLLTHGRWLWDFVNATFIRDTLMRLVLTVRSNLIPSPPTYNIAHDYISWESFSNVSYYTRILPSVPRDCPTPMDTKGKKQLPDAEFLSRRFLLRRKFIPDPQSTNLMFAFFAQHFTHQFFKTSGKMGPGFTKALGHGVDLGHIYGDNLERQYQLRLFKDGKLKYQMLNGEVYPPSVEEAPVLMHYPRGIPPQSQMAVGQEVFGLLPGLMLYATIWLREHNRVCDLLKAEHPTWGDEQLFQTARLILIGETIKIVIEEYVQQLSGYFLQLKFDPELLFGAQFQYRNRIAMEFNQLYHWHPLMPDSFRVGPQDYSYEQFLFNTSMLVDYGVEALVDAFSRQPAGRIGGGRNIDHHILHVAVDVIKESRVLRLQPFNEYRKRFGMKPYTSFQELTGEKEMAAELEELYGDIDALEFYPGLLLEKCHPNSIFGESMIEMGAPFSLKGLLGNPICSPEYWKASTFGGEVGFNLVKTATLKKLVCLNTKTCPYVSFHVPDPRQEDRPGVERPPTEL
Method: The inhibitory activity of the tested compounds against COX-1 and COX-2 isoforms was assessed using fluorometric cyclooxygenase inhibitor screening kits (Catalog Numbers ab204698 and ab283401, respectively; Abcam, Cambridge, UK). These assays detect the formation of prostaglandin G2, a product of COX enzymatic activity, via fluorometric measurement.
Stock solutions of the test compounds were prepared at a concentration of 5 mM in DMSO and subsequently diluted with the same solvent to obtain the test solutions. For the assay preparation, 2 μL of each test solution was diluted with 8 μL of COX assay buffer. The solvent control (SC) consisted of 2 μL of DMSO and 8 μL of assay buffer, while the enzyme control (EC) contained 10 μL of assay buffer alone. Sample wells (S) received 10 μL of the diluted test solutions. All other steps were in accordance with the manufacturer’s protocol and the previously published article. […] The percentage of inhibition was calculated as follows:(3) % Relative Inhibition=Slope of EC−Slope of S/Slope of EC×100
Fluorescence measurements were conducted on a BioTek Synergy LX multi-mode reader (Winooski, VT, USA).

SMILES: C[C@@H](C(=O)O)c1cccc(C(=O)c2ccccc2)c1 [(R)-ketoprofen]
Times lower COX inhibitory capacity than dexketoprofen (COX-1 and COX-2): 100 to 1000 times

IC50 (COX-1): 1.5 ± 0.6 nM
SMILES: C[C@H](C(=O)O)c1cccc(C(=O)c2ccccc2)c1 [Dexketoprofen, reference compound]
Systemic CAT activity compared to Sol (untreated) rats ([1]; erythrocyte lysate): significantly reduced activity of SOD and CAT, as well as the GSH level, in untreated rats compared to Dex | Systemic GSH level compared to untreated rats ([1]; erythrocyte lysate): significantly reduced activity of SOD and CAT, as well as the GSH level, in untreated rats compared to Dex | Systemic SOD activity compared to Sol (untreated) rats ([1]; erythrocyte lysate): significantly reduced activity of SOD and CAT, as well as the GSH level, in untreated rats compared to Dex | Systemic H2O2 level compared to solvent rats ([1]; plasma): significantly lower | Systemic O2∙− level compared to untreated (Sol) rats ([1]; plasma): significantly lower | Systemic TBARS level compared to Sol (untreated) rats ([1]; plasma): significantly decreased | Local O2∙− concentration compared to untreated rats [2]: significantly decreased | Local SOD activity compared to untreated (negative control) rats [2]: remarkably improved | Local nitrites level (reduction, p < 0.05) ([2]; comparator not given): markedly reduced
